# Source: patent publication US6586596B2, “Acetylcholine enhancers” (priority 1998, dated 2003)
# Where two headings read alike, the source gives them in different places.
# Columns and labels:
# Cynomologous monkeys = experiment: Hepatotoxic analysis, two-week oral study; assay type: in vivo; details: 5 mg/kg/day oral, 2 weeks; as to Autopsy, organ weight and histopathology: key: − no remarkable change; ↑ increase; ↓ decrease; + slight; ++ severe (diarrhea); as to Blood biochemistry: key: − no remarkable change; ↑ increase; ↓ decrease; + slight; ++ severe (diarrhea); as to Body weight: key: − no remarkable change; ↑ increase; ↓ decrease; + slight; ++ severe (diarrhea)
# Text: The following parameters were examined: body weight, clinical signs, food consumption, blood biochemistry (GOT, GPT, ALP, LDH, γ-GTP, ChE, Bil, T.Pro, Alb, A/G ratio, T.Cho, NEFA, TG). After the administration period, the animals were sacrificed and autopsied. Organs and tissues were weighed, then examined histopathologically.
# AChE = target: T1, AChE (Rattus norvegicus, UniProt P37136); assay type: in vivo; details: 1 hour after dosing
# T1 construct: from tissue; host or cells: rat brain (hippocampus, striatum, frontal cortex, parietal cortex)
# T1 sequence (P37136 32-614): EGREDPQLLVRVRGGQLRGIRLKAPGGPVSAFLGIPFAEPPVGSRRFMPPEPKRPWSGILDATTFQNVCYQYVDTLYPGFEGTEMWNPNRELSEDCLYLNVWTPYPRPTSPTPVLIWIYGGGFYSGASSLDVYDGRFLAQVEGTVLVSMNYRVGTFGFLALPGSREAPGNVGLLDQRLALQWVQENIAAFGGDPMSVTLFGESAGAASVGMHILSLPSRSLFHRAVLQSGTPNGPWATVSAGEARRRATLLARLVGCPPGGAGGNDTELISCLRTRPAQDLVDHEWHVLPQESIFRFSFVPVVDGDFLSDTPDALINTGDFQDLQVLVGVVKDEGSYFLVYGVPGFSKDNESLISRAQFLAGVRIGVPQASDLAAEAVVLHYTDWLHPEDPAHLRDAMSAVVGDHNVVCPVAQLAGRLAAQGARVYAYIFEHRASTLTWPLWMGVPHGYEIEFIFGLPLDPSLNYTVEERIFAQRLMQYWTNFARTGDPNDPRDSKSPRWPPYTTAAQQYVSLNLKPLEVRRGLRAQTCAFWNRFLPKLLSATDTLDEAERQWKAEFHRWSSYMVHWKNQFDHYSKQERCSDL
# Description: After 1 hour, rats were sacrificed and brains were isolated and divided into several portions. AChE activity in preparations from hippocampus, striatum, frontal cortex and parietal cortex was determined by Ellman's method.
# [1] = tested on: extracellular levels of ACh in hippocampus; experiment: ACh release in hippocampus, microdialysis in freely moving rats; assay type: in vivo; details: for ACh content in perfusate increased: hippocampus
# Description: ACh content in perfusate obtained from hippocampus (Bregma, A: −5.8 mm, L: 5.0 mm, H: 4.0 mm) of brain were continuously detected by means of HPLC and ECD through the microdialysis system using freely moving rats (See Messamore and Kawashima, supra). After an equilibration period, five fractions were allowed to obtain basal ACh content. Test substances were injected i.p., and thereafter, microdialytic analysis was conducted for 3 hr.
# [2] = tested on: scopolamine-induced amnesia; experiment: Passive avoidance, scopolamine-induced memory impairment; assay type: in vivo, male Wistar rats; details: 0.1, 0.3 and 3.0 mg/kg oral, 30 minutes before acquisition trial; scopolamine 0.5 mg/kg i.p.
# Description: Cutoff latency was set at 600 seconds.
# Rats were treated i.p. with scopolamine (0.5 mg/kg) 15 minutes before the acquisition trial.
# [3] = tested on: scopolamine-induced spatial memory deficit; experiment: Eight-arm radial maze, scopolamine-induced deficit in spatial memory; assay type: in vivo, male Wistar rats; details: oral dose 0.03~0.3 mg/kg; scopolamine 0.5 mg/kg i.p.
# Description: (§1) Using male Wistar rats, the anti-amnestic effects of Cm.A on spatial cognition was evaluated using an eight-arm radial maze task. After repeated trials for spatial cognition, memory-established rats (which had more than 7 correct choices and less than one error) were utilized.
# SEP-lesioned rats = experiment: Eight-arm radial maze, medial septal nucleus (SEP) lesion-induced deficit; assay type: in vivo, male Wistar rats; details: 3.0 mg/kg/day, repeated treatment for 2 weeks
# Description: as §1
# SEP (Bregma, A: 0.2 mm, L: −1.0 mm, H: −5.8 mm) was lesioned by microinjection with ibotenic acid (10 μg) similarly to that of the BF lesion of Example 4A(3).
# BF-lesioned rats [4] = experiment: Water maze, BF lesion-induced deficit in spatial learning; details: oral; Cm.A 0.3, 1.0 and 3.0 mg/kg/day, THA 1.0 mg/kg/day, E2020 0.3 and 1.0 mg/kg/day
# Description: For each training trial, the rat was placed in the water (22° C.) such that the animal faced the wall of a circular pool (150 cm in diameter, 45 cm in height), and started at one of five starting points (selected randornly). In each trial, the latency period to escape onto the hidden platform (fixed in the middle of one quadrant, 2 cm below the surface of water) was recorded. These procedures were repeated once or twice a day during the experimental period.
# BF-lesioned rats [5] = experiment: Passive avoidance, basal forebrain (BF) lesion-induced memory impairment
# Description: Using male Wistar rats, passive-avoidance studies were conducted using a step through-type, 2 compartment (light and dark) box. In the acquisition trial, at the time when the animal entered the dark area, a guillotine door was closed and an electric shock (0.5˜0.8 mA for 3 seconds) was delivered to the animal. After 24 hours, the retention trial was conducted: the rat was put in the light area and the time until the animal entered the dark area (latency) was measured. Cutoff latency was set at 600 seconds. Test substances were orally administered 30 minutes before the acquisition trial.
# After 2 weeks, the acquisition trial was conducted.
smiles,measurement,setting,value
"COc1c2c(nc3ccccc13)CN(CCC1CCN(Cc3ccccc3)CC1)C2=O [Cm.A, 2-[2-(1-benzylpiperizin-4-yl)ethyl]-2,3-dihydro-9-methoxy-1H-pyrrolo[3,4-b]quinolin-1-one hemifumarate]",clinical signs during the dosing period,Cynomologous monkeys,"caused soft stools, but to a lesser extent than the other two compounds"
same,hepatotoxicity,Cynomologous monkeys,no hepatotoxicity
same,"Autopsy, organ weight and histopathology",Cynomologous monkeys; F,−
same,Blood biochemistry,Cynomologous monkeys; F,−
same,Body weight,Cynomologous monkeys; F,−
same,Clinical signs softstool,Cynomologous monkeys; F,+
same,Clinical signs vomiting,Cynomologous monkeys; F,−
same,Food consumption,Cynomologous monkeys; F,−
same,"Autopsy, organ weight and histopathology",Cynomologous monkeys; M,−
same,Blood biochemistry,Cynomologous monkeys; M,−
same,Body weight,Cynomologous monkeys; M,−
same,Clinical signs softstool,Cynomologous monkeys; M,+
same,Clinical signs vomiting,Cynomologous monkeys; M,−
same,Food consumption,Cynomologous monkeys; M,−
same,AChE activity Frontal cortex,AChE; 1 mg/kg p.o.,48.1 nmol/min/mg protein
same,AChE activity Hippocampus,AChE; 1 mg/kg p.o.,37.6 ± 0.8 nmol/min/mg protein
same,AChE activity Parietal cortex,AChE; 1 mg/kg p.o.,27.3 ± 0.5 nmol/min/mg protein
same,AChE activity Striatim,AChE; 1 mg/kg p.o.,238.9 nmol/min/mg protein
same,AChE activity Frontal cortex,AChE; 3 mg/kg p.o.,56 nmol/min/mg protein
same,AChE activity Hippocampus,AChE; 3 mg/kg p.o.,42.1 ± 1.3 nmol/min/mg protein
same,AChE activity Parietal cortex,AChE; 3 mg/kg p.o.,31.3 ± 1.6 nmol/min/mg protein
same,AChE activity Striatim,AChE; 3 mg/kg p.o.,219.9 nmol/min/mg protein
same,AChE activity Frontal cortex,AChE; 10 mg/kg p.o.,58.4 nmol/min/mg protein
same,AChE activity Hippocampus,AChE; 10 mg/kg p.o.,48.3 ± 2.9 nmol/min/mg protein
same,AChE activity Parietal cortex,AChE; 10 mg/kg p.o.,32.6 ± 1.7 nmol/min/mg protein
same,AChE activity Striatim,AChE; 10 mg/kg p.o.,274.0 nmol/min/mg protein
same,inhibition of AChE activity (text on Table 3),AChE; p.o.,inhibition of AChE in a nondose dependent manner
same,"centrally acting cholinergic symptoms (tremor, chewing and yawning)","[1]; hippocampus study, i.p., data not shown",Few centrally acting cholinergic symptoms
same,ACh content in perfusate increased,[1]; 10 mg/kg i.p.,164%
same,ACh content in perfusate increased,[1]; 30 mg/kg i.p.,552%
same,"latency in retention trial, reversal of scopolamine effect",[2],significantly reversed the effect of scopolamine
same,"deficit of spatial cognition (correct choices, errors)",[3],significantly improved the deficit of spatial cognition
same,deficit of spatial memory,SEP-lesioned rats,significantly improved the deficit of spatial memory
same,deficit of spatial learning (escape latency),BF-lesioned rats [4],improved the deficit of spatial learning
same,"memory deficit induced by BF-lesion, repeated doses",BF-lesioned rats [5]; 0.03~0.3 mg/kg/day for 1 week,improvement in recovery as potently as or more potently than THA and E2020
same,"memory deficit induced by BF-lesion, single dose",BF-lesioned rats [5]; single dose 0.03~1.0 mg/kg,"partially, but significantly, recovered the memory deficit"
